10 compounds from ChEMBL document CHEMBL1201862, “PubChem BioAssay data set” (2004) can be followed below.

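A five-concentration, 48-hour dose response in 96-well plates underlies each endpoint, interpolated linearly between surrounding concentrations. GI50 = concentration required for 50% inhibition of growth.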 The source made the active and inactive calls. Cut-off read from the data, not from the text of the source: active = GI50 up to about 1.1 µM and inactive = higher. Bounds are passed on as bounds.

Some test systems named below: SF-268; HOP-62; NCI-H460; HT-29; Hs-578T; PC-3; MDA-MB-231; SF-295; MCF7; HCT-116; SK-OV-3; LOX IMVI; OVCAR-8; CAKI-1; CCRF-CEM; UACC-62; K562; UACC-257; MOLT-4; SNB-19.
What all share (experiment): DTP human tumour cell line panel, 48 h

On to `OC(c1cc(-c2ccc(Cl)cc2)nc2ccccc12)C1CCCCN1` (stereo not given), for which the GI50 in the assay on SF-268 is 2.02 µM (inactive); in the assay with HOP-62, 1.61 µM (inactive); in the assay with NCI-H460 it was 2.08 µM (inactive); in the assay on HT-29 it was 1.9 µM (inactive); with Hs-578T it was 1.99 µM (inactive); in the assay with PC-3 it was 1.97 µM (inactive). The GI50 in the assay on MDA-MB-231 is 1.95 µM (inactive); in the assay with SF-295, 1.94 µM (inactive); in the assay with MCF7, 1.82 µM (inactive); in the assay with HCT-116, 1.92 µM (inactive); in the assay on SK-OV-3, 2.16 µM (inactive); with LOX IMVI, 0.982 µM (active). Moreover, the GI50 was 2.08 µM (inactive) with OVCAR-8; 2.32 µM (inactive) with CAKI-1; 0.498 µM (active) in the assay with CCRF-CEM; 1.82 µM (inactive) in the assay on UACC-62; 1.48 µM (inactive) with K562; 2.66 µM (inactive) with UACC-257. Further, the GI50 is 2.37 µM (inactive) in the assay on MOLT-4 and 3.3 µM (inactive) in the assay on SNB-19.

Turning to `NS(=O)(=O)c1ccc(NNc2c3ccccc3nc3ccccc23)cc1`, the GI50 in the assay with SF-268 is 12.2 µM (inactive); in the assay on HOP-62, 12.2 µM (inactive); in the assay on NCI-H460, 12.2 µM (inactive); in the assay on HT-29 it was 7.73 µM (inactive); in the assay on Hs-578T, 14.5 µM (inactive); in the assay on PC-3, 11.5 µM (inactive). For the same compound, the GI50 was 15.6 µM (inactive) in the assay with MDA-MB-231; 12 µM (inactive) with SF-295; 10.9 µM (inactive) in the assay on MCF7; 10.8 µM (inactive) in the assay on HCT-116; 14.8 µM (inactive) with SK-OV-3; 7.21 µM (inactive) in the assay on LOX IMVI. Also, the GI50 in the assay with OVCAR-8 was 11.8 µM (inactive); in the assay on CAKI-1, 13 µM (inactive); in the assay with CCRF-CEM it was 6.28 µM (inactive); with UACC-62, 12.3 µM (inactive); in the assay on K562, 7.89 µM (inactive); in the assay on UACC-257 it was 13.2 µM (inactive). For the same compound, the results for the GI50 with MOLT-4 and with SNB-19 were 6.04 µM (inactive) and 14.7 µM (inactive), respectively.

Turning to `O=[N+]([O-])c1cc(F)ccc1Sc1ccccc1`, the GI50 in the assay on SF-268, in the assay with HOP-62, in the assay on NCI-H460, in the assay with HT-29, in the assay with Hs-578T and in the assay on PC-3 was > 10 µM (inactive) throughout. The GI50 with MDA-MB-231, in the assay on SF-295, in the assay with MCF7, in the assay with HCT-116, with SK-OV-3 and with LOX IMVI was > 10 µM (inactive) in each case. Also, the GI50 in the assay with OVCAR-8, in the assay on CAKI-1, in the assay on CCRF-CEM, in the assay on UACC-62, with K562 and in the assay with UACC-257 was > 10 µM (inactive) in each case. Besides, the GI50 in the assay on MOLT-4 and in the assay on SNB-19 was > 10 µM (inactive) each time.

In the case of `CN1CCN(C(=O)c2cn(Cc3cncn3Cc3ccc4c(c3)OCO4)cc2-c2cccc3ccccc23)CC1`, the GI50 with SF-268 is 18.5 µM (inactive); in the assay with HOP-62, 26.9 µM (inactive); in the assay with NCI-H460, 2.46 µM (inactive); with HT-29 it was 3.11 µM (inactive); in the assay on Hs-578T, 23.2 µM (inactive); with PC-3 it was 15.6 µM (inactive). Also, the GI50 is 9.25 µM (inactive) with MDA-MB-231; 6.24 µM (inactive) with SF-295; 14.2 µM (inactive) in the assay on MCF7; 4.89 µM (inactive) in the assay with HCT-116; 22.7 µM (inactive) in the assay on SK-OV-3; 4.76 µM (inactive) in the assay with LOX IMVI. For the same compound, the GI50 was 31.6 µM (inactive) in the assay with OVCAR-8; 20.5 µM (inactive) in the assay with CAKI-1; 4.71 µM (inactive) in the assay on CCRF-CEM; 7.96 µM (inactive) in the assay on UACC-62; 3.32 µM (inactive) in the assay on K562; 14 µM (inactive) in the assay on UACC-257. Besides, the values for the GI50 in the assay with MOLT-4 and in the assay with SNB-19 were 1.58 µM (inactive) and 14.3 µM (inactive), respectively.

Consider `COc1cc(OC)cc(Oc2nc3ccccc3nc2C(F)(F)F)c1`, for which the GI50 in the assay on SF-268 is 68.4 µM (inactive); in the assay with HOP-62 it was 19.3 µM (inactive); with NCI-H460 it was > 100 µM (inactive); in the assay with HT-29 it was > 100 µM (inactive); with Hs-578T, 72.1 µM (inactive); in the assay on PC-3 it was 89.7 µM (inactive). Moreover, the GI50 in the assay on MDA-MB-231 is 14.7 µM (inactive); in the assay on SF-295, 28.8 µM (inactive); in the assay with MCF7, > 100 µM (inactive); in the assay with HCT-116 it was > 100 µM (inactive); with SK-OV-3, > 100 µM (inactive); with LOX IMVI it was > 100 µM (inactive). For the same compound, the GI50 is > 100 µM (inactive) in the assay with OVCAR-8; > 100 µM (inactive) in the assay on CAKI-1; 0.986 µM (active) in the assay on CCRF-CEM; > 100 µM (inactive) in the assay with UACC-62; 9.25 µM (inactive) in the assay on K562; > 100 µM (inactive) with UACC-257. The GI50 in the assay on MOLT-4 was > 100 µM (inactive); in the assay with SNB-19 it was 53.7 µM (inactive).

In the case of `O=c1onc2n1-c1ccc(Cl)cc1C(=S)N1CSCC21` (stereo not given), the GI50 in the assay with SF-268 is 25.8 µM (inactive); in the assay on HOP-62 it was 63.1 µM (inactive); in the assay with NCI-H460, 20.9 µM (inactive); in the assay on HT-29, 24.5 µM (inactive); in the assay with Hs-578T, 22.2 µM (inactive); in the assay on PC-3 it was 31.4 µM (inactive). Further, the GI50 in the assay on MDA-MB-231 is 19.5 µM (inactive); in the assay with SF-295, 17.5 µM (inactive); in the assay on MCF7, 28.4 µM (inactive); with HCT-116, 13.7 µM (inactive); with SK-OV-3 it was 19.4 µM (inactive); with LOX IMVI, 31.5 µM (inactive). Besides, the GI50 in the assay on OVCAR-8 is 18.1 µM (inactive); with CAKI-1, 64.1 µM (inactive); in the assay on CCRF-CEM it was 25.9 µM (inactive); with UACC-62, 67.8 µM (inactive); in the assay on K562, 25.4 µM (inactive); in the assay with UACC-257, > 100 µM (inactive). In addition, the GI50 in the assay with MOLT-4 was 30.1 µM (inactive); with SNB-19, 22.3 µM (inactive).

With `NC(=O)c1ncn(C2C=CC(CP(=O)(O)O)C2)c1N` (stereo not given), the GI50 with SF-268, in the assay with HOP-62, in the assay on NCI-H460, in the assay with HT-29, in the assay on Hs-578T and with PC-3 was > 100 µM (inactive) in each case. Besides, the GI50 in the assay with MDA-MB-231, in the assay on SF-295, in the assay with MCF7, in the assay with HCT-116, with SK-OV-3 and in the assay on LOX IMVI was > 100 µM (inactive) in each case. The GI50 with OVCAR-8, with CAKI-1, in the assay on CCRF-CEM, in the assay on UACC-62, in the assay with K562 and in the assay on UACC-257 was > 100 µM (inactive) each time. For the same compound, the GI50 in the assay with MOLT-4 and with SNB-19 was > 100 µM (inactive) throughout.

Take `CCN(CC)CCSc1c(C(C)=O)c(=O)n(-c2ccccc2)c(=S)n1-c1ccccc1`: the GI50 in the assay with SF-268 is 15.8 µM (inactive); in the assay on HOP-62, 18.9 µM (inactive); with NCI-H460, 21.1 µM (inactive); with HT-29, 16.7 µM (inactive); in the assay on Hs-578T it was 23.4 µM (inactive); in the assay on PC-3 it was 4.04 µM (inactive). The GI50 with MDA-MB-231 was 13.1 µM (inactive); in the assay on SF-295, > 78 µM (inactive); with MCF7 it was 3.18 µM (inactive); with HCT-116 it was 2.28 µM (inactive); in the assay on SK-OV-3, 34 µM (inactive); in the assay with LOX IMVI, 3.32 µM (inactive). Besides, the GI50 in the assay with OVCAR-8 was 3.46 µM (inactive); with CAKI-1, 10.2 µM (inactive); with CCRF-CEM it was 0.571 µM (active); with UACC-62, 14.4 µM (inactive); in the assay with K562 it was 3.09 µM (inactive); in the assay with UACC-257 it was 9.98 µM (inactive). Besides, the GI50 in the assay with MOLT-4 was 2.77 µM (inactive); with SNB-19 it was 21.1 µM (inactive).

With `CC1C(=O)OC2CC[N+]3([O-])CC=C(COC(=O)C(C)(O)C1(C)O)C23` (stereo not given), the GI50 with SF-268, with HOP-62, in the assay on NCI-H460, with HT-29, in the assay with Hs-578T and in the assay on PC-3 was > 100 µM (inactive) throughout. Also, the GI50 in the assay with MDA-MB-231, in the assay on SF-295, in the assay with MCF7, with HCT-116, in the assay with SK-OV-3 and in the assay on LOX IMVI was > 100 µM (inactive) throughout. Further, the GI50 in the assay on OVCAR-8, in the assay with CAKI-1, in the assay with CCRF-CEM, in the assay on UACC-62, in the assay on K562 and with UACC-257 was > 100 µM (inactive) throughout. The GI50 in the assay on MOLT-4 and in the assay on SNB-19 was > 100 µM (inactive) in each case.

In the case of `CCc1nc(N)nc(N)c1-c1ccc(N(C)Cc2ccccc2)c([N+](=O)[O-])c1`, the concentration for 50% growth inhibition (GI50) with SF-268 is 0.303 µM (active); with HOP-62, 0.13 µM (active); with NCI-H460 it was < 0.01 µM (active); in the assay on HT-29, 0.0191 µM (active); with Hs-578T it was 10.2 µM (inactive); in the assay on PC-3, 0.0557 µM (active). For the same compound, the GI50 is 7.67 µM (inactive) in the assay with MDA-MB-231; 0.0522 µM (active) in the assay on SF-295; 0.202 µM (active) with MCF7; < 0.01 µM (active) in the assay with HCT-116; 7.62 µM (inactive) in the assay on SK-OV-3; < 0.0114 µM (active) in the assay on LOX IMVI. Also, the GI50 with OVCAR-8 was 0.0466 µM (active); in the assay with CAKI-1, 0.0706 µM (active); in the assay with CCRF-CEM, 0.0237 µM (active); in the assay with UACC-62 it was 0.0357 µM (active); in the assay on K562, < 0.01 µM (active); in the assay with UACC-257, 2.58 µM (inactive). Moreover, the concentration for 50% growth inhibition (GI50) with MOLT-4 is 0.059 µM (active); in the assay on SNB-19 it was 0.745 µM (active).
